Reference: the NIST ThermoML archive (doi:10.1016/j.jct.2016.01.021)

Key:
[1] = 100 kPa, Liquid; for viscosity: Capillary tube (Ostwald / Ubbelohde) method; for mass density: Vibrating tube method
[2] = xn = mol fraction of the nth substance listed; conditions: 100 kPa, Liquid, x1 = 1; for viscosity: Capillary tube (Ostwald / Ubbelohde) method; for mass density: Vibrating tube method

CCCCCCCCCC(=O)OCC [ethyl decanoate]
[1]
Conditions	mass density [kg/m3]	viscosity [mPa·s]
298.15 K	860.05	2.115
303.15 K	855.99	1.919
308.15 K	851.92	1.75
313.15 K	847.85	1.603
318.15 K	843.77	1.474
323.15 K	839.69	1.362

CCCCCCCCCCCCCCCC [hexadecane] + CCCCCCCCCCCC(=O)OCC
[2]
Conditions	mass density [kg/m3]	viscosity [mPa·s]
298.15 K	769.92	3.085
303.15 K	766.51	2.756
308.15 K	763.06	2.478
313.15 K	759.6	2.239
318.15 K	756.14	2.034
323.15 K	752.68	1.857

CCCCCCCCCCCCCCCC [hexadecane]
[1]
Conditions	mass density [kg/m3]	viscosity [mPa·s]
298.15 K	769.92	3.085
303.15 K	766.51	2.756
308.15 K	763.06	2.478
313.15 K	759.6	2.239
318.15 K	756.14	2.034
323.15 K	752.68	1.857

CCCCCCCC(=O)OCC [ethyl octanoate]
[1]
Conditions	mass density [kg/m3]	viscosity [mPa·s]
298.15 K	862.64	1.428
303.15 K	858.34	1.313
308.15 K	854.04	1.211
313.15 K	849.72	1.121
318.15 K	845.39	1.042
323.15 K	841.06	0.971

CCCCCCCCCCCCCCCC [hexadecane] + CCCCCCCCCC(=O)OCC
[2]
Conditions	mass density [kg/m3]	viscosity [mPa·s]
298.15 K	769.92	3.085
303.15 K	766.51	2.756
308.15 K	763.06	2.478
313.15 K	759.6	2.239
318.15 K	756.14	2.034
323.15 K	752.68	1.857

CCCCCCCCCCCC(=O)OCC [ethyl dodecanoate]
[1]
Conditions	mass density [kg/m3]	viscosity [mPa·s]
298.15 K	858.19	3.015
303.15 K	854.3	2.704
308.15 K	850.4	2.439
313.15 K	846.5	2.213
318.15 K	842.6	2.016
323.15 K	838.7	1.846

CCCCCCCCCCCCCCCC [hexadecane] + CCCCCCCC(=O)OCC
[2]
Conditions	mass density [kg/m3]	viscosity [mPa·s]
298.15 K	769.92	3.085
303.15 K	766.51	2.756
308.15 K	763.06	2.478
313.15 K	759.6	2.239
318.15 K	756.14	2.034
323.15 K	752.68	1.857
